According to patent publication US20250312499A1, “KISSPEPTIN RECEPTOR (KISS1R) TARGETED THERAPEUTICS AND USES THEREOF” (priority 2024, published 2025):
Numbered stars: 1 amine (or outer) side, 2 acyl side, 3 side chain; on linkers, the order of the positions; unused ones are H or OH. Square brackets hold non-standard residues; d marks the D form. Peptide text beside a SMILES is read from it. * marks the point of attachment. DOTA = O=C(O)CN1CCN(CC(=O)O)CCN(CC(=O)*)CCN(CC(=O)O)CC1; Gly(N-(3-F-4-Me-benzyl)) = Cc1ccc(CNCC(=O)*)cc1F; Api(1-amidino) = N=C(N)N1CCC(N)(C(=O)O)CC1; d(γGlu) = O=C(O)[C@@H](CCC(=O)[*:2])N[*:1]; Bip = N[C@@H](Cc1ccc(-c2ccccc2)cc1)C(=O)O; Hydrocinnamoyl(4-I) = O=C(CCc1ccc(I)cc1)*; Phe(4-CN) = N#Cc1ccc(C[C@H](N)C(=O)O)cc1; d2Nal = N[C@H](Cc1ccc2ccccc2c1)C(=O)O; Trx = NC[C@H]1CC[C@H](C(=O)O)CC1; 4Pal = N[C@@H](Cc1ccncc1)C(=O)O; d4Pal = N[C@H](Cc1ccncc1)C(=O)O; Cha = N[C@@H](CC1CCCCC1)C(=O)O; 4Amb = NCc1ccc(C(=O)O)cc1; Octanoyl = CCCCCCCC(=O)*; Api = NC1(C(=O)O)CCNCC1; PEG2 = NCCOCCOCCC(=O)O; Ahx = NCCCCCC(=O)O; azaGly = NNC(=O)O; Sar = CNCC(=O)O

Each compound was assayed against human kisspeptin receptor (Homo sapiens (Human), UniProt Q969F8) (assay: Human KISS1R binding assay (membrane competition binding)). Conditions: 90 min at room temperature; competition with 0.2 nM [125I]-metastin (45-54); Flp-In T-Rex 293 kisspeptin membranes; metal complexes nonradioactive Ga, In, Lu; read-out: hKiSSR Binding Ki (90 min).
Summary of the method: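 Radioligand competition: 0.2 nM [125I]-metastin (45-54) displaced by test ligand (usually 0–10,000 nM) over 90 min at room temperature, pH 7.4 buffer with 0.1% BSA. Receptor source is crude membrane (5–10 μg) from tetracycline-induced Flp-In T-Rex 293 cells. Bound label filtered and counted; Ki from non-linear regression.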

Chain of human kisspeptin receptor (Q969F8 whole entry): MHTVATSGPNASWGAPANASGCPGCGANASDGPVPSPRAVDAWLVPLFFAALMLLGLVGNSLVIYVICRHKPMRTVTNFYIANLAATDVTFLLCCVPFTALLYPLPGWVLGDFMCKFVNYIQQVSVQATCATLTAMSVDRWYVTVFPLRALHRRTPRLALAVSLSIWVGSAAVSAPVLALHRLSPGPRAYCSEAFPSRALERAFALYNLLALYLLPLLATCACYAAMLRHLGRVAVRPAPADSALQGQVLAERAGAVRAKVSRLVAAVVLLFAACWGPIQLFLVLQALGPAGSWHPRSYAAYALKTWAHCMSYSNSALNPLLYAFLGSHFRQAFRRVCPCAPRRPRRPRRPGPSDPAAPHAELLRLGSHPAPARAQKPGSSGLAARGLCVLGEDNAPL

SMILES	Ki
Cc1ccc(CNCC(=O)N2CCC(NC(=O)[C@H](CC(C)C)NC(=O)NNC(=O)[C@H](Cc3ccccc3)NC(=O)[C@@H](NC(=O)[C@H](CC(N)=O)NC(=O)[C@@H](Cc3ccc4ccccc4c3)NC(=O)[C@@H](Cc3ccc(O)cc3)NC(=O)CCCCCNC(=O)CN3CCN(CC(=O)O)CCN(CC(=O)O)CCN(CC(=O)O)CC3)[C@@H](C)O)(C(=O)N[C@@H](Cc3c[nH]c4ccccc34)C(N)=O)CC2)cc1F [Compound 304] ({DOTA-Ahx}-[dY][d2Nal]NTF[azaGly]L[Api](Gly(N-(3-F-4-Me-benzyl)))W-NH2)	< 10 nM
Cc1ccc(CNCC(=O)N2CCC(NC(=O)[C@H](CC(C)C)NC(=O)NNC(=O)[C@H](Cc3ccccc3)NC(=O)[C@@H](NC(=O)[C@H](CC(N)=O)NC(=O)[C@@H](Cc3c[nH]c4ccccc34)NC(=O)[C@@H](Cc3ccc(O)cc3)NC(=O)CCCCCNC(=O)[C@H](Cc3ccc(O)cc3)NC(=O)CNC(=O)c3ccc(CNC(=O)CN4CCN(CC(=O)O)CCN(CC(=O)O)CCN(CC(=O)O)CC4)cc3)[C@@H](C)O)(C(=O)N[C@@H](Cc3c[nH]c4ccccc34)C(N)=O)CC2)cc1F [Compound 149] ({DOTA-4Amb}-GY[Ahx][dY][dW]NTF[azaGly]L[Api](Gly(N-(3-F-4-Me-benzyl)))W-NH2)	< 10 nM
CC(C)C[C@H](NC(=O)NNC(=O)[C@H](Cc1ccccc1)NC(=O)[C@@H](NC(=O)[C@H](CC(N)=O)NC(=O)[C@@H](Cc1ccc2ccccc2c1)NC(=O)CCCCCNC(=O)CN1CCN(CC(=O)O)CCN(CC(=O)O)CCN(CC(=O)O)CC1)[C@@H](C)O)C(=O)NC1(C(=O)N[C@@H](Cc2ccccc2)C(N)=O)CCN(C(=N)N)CC1 [Compound 301] ({DOTA-Ahx}-[d2Nal]NTF[azaGly]L[Api(1-amidino)]F-NH2)	< 10 nM
Cc1ccc(CNCC(=O)N2CCC(NC(=O)[C@H](CC(C)C)NC(=O)NNC(=O)[C@H](Cc3ccccc3)NC(=O)[C@@H](NC(=O)[C@H](CC(N)=O)NC(=O)[C@@H](CCC(=O)O)NC(=O)c3ccc(CNC(=O)CN4CCN(CC(=O)O)CCN(CC(=O)O)CCN(CC(=O)O)CC4)cc3)[C@@H](C)O)(C(=O)N[C@@H](Cc3ccc(C#N)cc3)C(N)=O)CC2)cc1F [Compound 242] ({DOTA-4Amb}-[dE]NTF[azaGly]L[Api](Gly(N-(3-F-4-Me-benzyl)))[Phe(4-CN)]-NH2)	< 10 nM
CCCCCCCC(=O)N[C@H](Cc1ccc(O)cc1)C(=O)N[C@@H](CCCCNC(=O)CN1CCN(CC(=O)O)CCN(CC(=O)O)CCN(CC(=O)O)CC1)C(=O)N[C@@H](CC(N)=O)C(=O)N[C@H](C(=O)N[C@@H](Cc1ccccc1)C(=O)NNC(=O)N[C@@H](CC(C)C)C(=O)NC1(C(=O)N[C@@H](Cc2c[nH]c3ccccc23)C(N)=O)CCN(C(=O)CNCc2ccc(C)c(F)c2)CC1)[C@@H](C)O [Compound 181] (Octanoyl-[dY]K(DOTA)NTF[azaGly]L[Api](Gly(N-(3-F-4-Me-benzyl)))W-NH2)	< 10 nM
Cc1ccc(CNCC(=O)N2CCC(NC(=O)[C@H](CC(C)C)NC(=O)NNC(=O)[C@H](Cc3ccccc3)NC(=O)[C@@H](NC(=O)[C@H](CC(N)=O)NC(=O)[C@@H](Cc3ccncc3)NC(=O)[C@@H](Cc3ccc(O)cc3)NC(=O)CCOCCOCCNC(=O)CN3CCN(CC(=O)O)CCN(CC(=O)O)CCN(CC(=O)O)CC3)[C@@H](C)O)(C(=O)N[C@@H](Cc3c[nH]c4ccccc34)C(N)=O)CC2)cc1F [Compound 368] ({DOTA-PEG2}-[dY][d4Pal]NTF[azaGly]L[Api](Gly(N-(3-F-4-Me-benzyl)))W-NH2)	< 10 nM
Cc1ccc(CNCC(=O)N2CCC(NC(=O)[C@H](CC(C)C)NC(=O)NNC(=O)[C@H](Cc3ccccc3)NC(=O)[C@H]3CC[C@H](CNC(=O)CN4CCN(CC(=O)O)CCN(CC(=O)O)CCN(CC(=O)O)CC4)CC3)(C(=O)N[C@@H](Cc3c[nH]c4ccccc34)C(N)=O)CC2)cc1F [Compound 192] ({DOTA-Trx}-F[azaGly]L[Api](Gly(N-(3-F-4-Me-benzyl)))W-NH2)	< 10 nM
CCCCCCCC(=O)N[C@H](Cc1ccc(O)cc1)C(=O)N[C@H](CCCCNC(=O)CN1CCN(CC(=O)O)CCN(CC(=O)O)CCN(CC(=O)O)CC1)C(=O)N[C@@H](CC(N)=O)C(=O)N[C@H](C(=O)N[C@@H](CC1CCCCC1)C(=O)NNC(=O)N[C@@H](CC(C)C)C(=O)NC1(C(=O)N[C@H](Cc2c[nH]c3ccccc23)C(N)=O)CCN(C(=O)CNC)CC1)[C@@H](C)O [Compound 355] (Octanoyl-[dY][dK](DOTA)NT[Cha][azaGly]L[Api](Sar)[dW]-NH2)	< 10 nM
Cc1ccc(CNCC(=O)N2CCC(NC(=O)[C@H](CC(C)C)NC(=O)NNC(=O)[C@H](Cc3ccccc3)NC(=O)[C@@H](NC(=O)[C@H](CC(N)=O)NC(=O)NNC(=O)[C@@H](Cc3ccc(O)cc3)NC(=O)CCCCCNC(=O)CN3CCN(CC(=O)O)CCN(CC(=O)O)CCN(CC(=O)O)CC3)[C@@H](C)O)(C(=O)N[C@@H](Cc3c[nH]c4ccccc34)C(N)=O)CC2)cc1F [Compound 108] ({DOTA-Ahx}-[dY][azaGly]NTF[azaGly]L[Api](Gly(N-(3-F-4-Me-benzyl)))W-NH2)	< 10 nM
CNCC(=O)N1CCC(NC(=O)[C@H](CC(C)C)NC(=O)NNC(=O)[C@H](Cc2ccccc2)NC(=O)[C@@H](NC(=O)[C@H](CC(N)=O)NC(=O)[C@H](Cc2ccc(-c3ccccc3)cc2)NC(=O)[C@@H](Cc2ccc(O)cc2)NC(=O)CCCCCNC(=O)CN2CCN(CC(=O)O)CCN(CC(=O)O)CCN(CC(=O)O)CC2)[C@@H](C)O)(C(=O)N[C@H](Cc2c[nH]c3ccccc23)C(N)=O)CC1 [Compound 389] ({DOTA-Ahx}-[dY][Bip]NTF[azaGly]L[Api](Sar)[dW]-NH2)	< 10 nM
Cc1ccc(CNCC(=O)N2CCC(NC(=O)[C@H](CC(C)C)NC(=O)CN(C)C(=O)[C@H](Cc3ccccc3)NC(=O)CCCCCNC(=O)CN3CCN(CC(=O)O)CCN(CC(=O)O)CCN(CC(=O)O)CC3)(C(=O)N[C@@H](Cc3c[nH]c4ccccc34)C(N)=O)CC2)cc1F [Compound 12] ({DOTA-Ahx}-F[Sar]L[Api](Gly(N-(3-F-4-Me-benzyl)))W-NH2)	10 to 100 nM
CC(C)C[C@H](NC(=O)NNC(=O)[C@H](CC1CCCCC1)NC(=O)[C@@H](NC(=O)[C@H](CC(N)=O)NC(=O)[C@H](CCCCNC(=O)CN1CCN(CC(=O)O)CCN(CC(=O)O)CCN(CC(=O)O)CC1)NC(=O)[C@@H](Cc1ccc(O)cc1)NC(=O)CCOCCOCCNC(=O)CCc1ccc(I)cc1)[C@@H](C)O)C(=O)NC1(C(=O)N[C@@H](Cc2c[nH]c3ccccc23)C(N)=O)CCN(C(=N)N)CC1 [Compound 327] ({Hydrocinnamoyl(4-I)-PEG2}-[dY]K(DOTA)NT[Cha][azaGly]L[Api(1-amidino)]W-NH2)	< 10 nM
Cc1ccc(CNCC(=O)N2CCC(NC(=O)[C@H](CC(C)C)NC(=O)NNC(=O)[C@H](Cc3ccccc3)NC(=O)[C@@H](NC(=O)[C@H](CC(N)=O)NC(=O)[C@@H](Cc3c[nH]c4ccccc34)NC(=O)[C@@H](Cc3c[nH]cn3)NC(=O)[C@@H](Cc3ccc(O)cc3)NC(=O)CCCCCNC(=O)CN3CCN(CC(=O)O)CCN(CC(=O)O)CCN(CC(=O)O)CC3)[C@@H](C)O)(C(=O)N[C@@H](Cc3ccncc3)C(N)=O)CC2)cc1F [Compound 107] ({DOTA-Ahx}-[dY][dH][dW]NTF[azaGly]L[Api](Gly(N-(3-F-4-Me-benzyl)))[4Pal]-NH2)	< 10 nM
Cc1ccc(CNCC(=O)N2CCC(NC(=O)[C@H](CC(C)C)NC(=O)NNC(=O)[C@H](Cc3ccccc3)NC(=O)[C@@H](NC(=O)[C@H](CC(N)=O)NC(=O)[C@@H](Cc3ccc4ccccc4c3)NC(=O)CCCCCNC(=O)CN3CCN(CC(=O)O)CCN(CC(=O)O)CCN(CC(=O)O)CC3)[C@@H](C)O)(C(=O)N[C@@H](Cc3ccncc3)C(N)=O)CC2)cc1F [Compound 292] ({DOTA-Ahx}-[d2Nal]NTF[azaGly]L[Api](Gly(N-(3-F-4-Me-benzyl)))[4Pal]-NH2)	< 10 nM
Cc1ccc(CNCC(=O)N2CCC(NC(=O)[C@H](CC(C)C)NC(=O)NNC(=O)[C@H](Cc3ccccc3)NC(=O)[C@@H](NC(=O)[C@H](CC(N)=O)NC(=O)[C@@H](Cc3ccc4ccccc4c3)NC(=O)[C@@H](Cc3ccc(O)cc3)NC(=O)CNC(=O)CN3CCN(CC(=O)O)CCN(CC(=O)O)CCN(CC(=O)O)CC3)[C@@H](C)O)(C(=O)N[C@@H](Cc3c[nH]c4ccccc34)C(N)=O)CC2)cc1F [Compound 365] ({DOTA}-G[dY][d2Nal]NTF[azaGly]L[Api](Gly(N-(3-F-4-Me-benzyl)))W-NH2)	< 10 nM
Cc1ccc(CNCC(=O)N2CCC(NC(=O)[C@H](CC(C)C)SCCNC(=O)[C@H](Cc3ccccc3)NC(=O)CCCCCNC(=O)CN3CCN(CC(=O)O)CCN(CC(=O)O)CCN(CC(=O)O)CC3)(C(=O)N[C@@H](Cc3c[nH]c4ccccc34)C(N)=O)CC2)cc1F [Compound 8]	< 10 nM
Cc1ccc(CNCC(=O)N2CCC(NC(=O)[C@H](CC(C)C)NC(=O)NNC(=O)[C@H](Cc3ccccc3)NC(=O)CCCCCNC(=O)[C@H](Cc3ccc(O)cc3)NC(=O)CNC(=O)CN3CCN(CC(=O)O)CCN(CC(=O)O)CCN(CC(=O)O)CC3)(C(=O)N[C@@H](Cc3c[nH]c4ccccc34)C(N)=O)CC2)cc1F [Compound 305] ({DOTA}-GY[Ahx]F[azaGly]L[Api](Gly(N-(3-F-4-Me-benzyl)))W-NH2)	< 10 nM
Cc1ccc(CNCC(=O)N2CCC(NC(=O)[C@H](CC(C)C)NC(=O)NNC(=O)[C@H](Cc3ccccc3)NC(=O)CCCCCNC(=O)CN3CCN(CC(=O)O)CCN(CC(=O)O)CCN(CC(=O)O)CC3)(C(=O)N[C@@H](CC3CCCCC3)C(N)=O)CC2)cc1F [Compound 141] ({DOTA-Ahx}-F[azaGly]L[Api](Gly(N-(3-F-4-Me-benzyl)))[Cha]-NH2)	10 to 100 nM
Cc1ccc(CNCC(=O)N2CCC(NC(=O)[C@H](CC(C)C)NC(=O)NNC(=O)[C@H](Cc3ccccc3)NC(=O)[C@H]3CC[C@H](CNC(=O)CC[C@@H](NC(=O)CN4CCN(CC(=O)O)CCN(CC(=O)O)CCN(CC(=O)O)CC4)C(=O)O)CC3)(C(=O)N[C@@H](Cc3c[nH]c4ccccc34)C(N)=O)CC2)cc1F [Compound 165] ({DOTA-d(γGlu)-Trx}-F[azaGly]L[Api](Gly(N-(3-F-4-Me-benzyl)))W-NH2)	< 10 nM
